Data: patent US12049452B2, “Olaparib hydroxybenzoic acid cocrystals and their pharmaceutical use” (NUFORMIX TECHNOLOGIES LIMITED, priority 2021, dated 2024)

Key:
[1] = Gravimetric Vapour Sorption (GVS) moisture sorption isotherm; type: physicochemical; details: for XRPD analysis of the sample post GVS (cocrystal structure): after GVS isotherm
Procedure: Gravimetric Vapour Sorption (GVS): Sorption isotherms were obtained using a SMS DVS Intrinsic moisture sorption analyzer, controlled by DVS Intrinsic Control software. The sample temperature was maintained at 25° C. by the instrument controls. The humidity was controlled by mixing streams of dry and wet nitrogen, with a total flow rate of 200 ml/min. The relative humidity was measured by a calibrated Rotronic probe (dynamic range of 1.0-100% RH), located near the sample. The weight change, (mass relaxation) of the sample as a function of % RH was constantly monitored by a microbalance (accuracy ±0.005 mg).
Typically, 5-30 mg of sample was placed in a tared mesh stainless steel basket under ambient conditions. The sample was loaded and unloaded at 40% RH and 25° C. (typical room conditions). A moisture sorption isotherm was performed as outlined in Table 1 (2 scans per complete cycle). The standard isotherm was performed at 25° C. at 10% RH intervals over a 0-90% RH range. Typically, a double cycle (4 scans) was carried out. Data analysis was carried out within Microsoft Excel using the DVS Analysis Suite. The sample was recovered after completion of the isotherm and re-analyzed by XRPD.

[2] = Solid-state stability study under accelerated storage conditions (XRPD form change, HPLC purity); type: physicochemical; details: 7 days; for Purity: HPLC
Procedure: Bruker D8 X-Ray Powder Diffraction (XRPD) Characterization: X-ray powder diffraction patterns for the samples were acquired on a Bruker D8 diffractometer using Cu Ka radiation (40 kV, 40 mA) and a θ-2θ goniometer fitted with a Ge monochromator. The incident beam passes through a 2.0 mm divergence slit followed by a 0.2 mm anti-scatter slit and knife edge. The diffracted beam passes through an 8.0 mm receiving slit with 2.5° Soller slits followed by the Lynxeye Detector. The software used for data collection and analysis was Diffrac Plus XRD Commander and Diffrac Plus EVA respectively. Samples were run under ambient conditions over an angular range of 2° to 42° 2θ (using a step size of 0.05° 2θ and a step time of 0.5 seconds) as flat plate specimens using powder as received. The sample was prepared on a polished, zero-background (510) silicon wafer by gently pressing onto the flat surface or packed into a cut cavity. The sample was rotated in its own plane. Small D8 disc recess holders were used to prepare samples.
Chemical Purity Determination by HPLC: Purity analysis was performed on an Agilent HP1100/Infinity II 1260 series system equipped with a diode array detector and using Open LAB software.
A study was carried out to examine the physical stability of the olaparib hydroxybenzoic acid cocrystals with respect to solid form conversion or signs of decomposition over time under accelerated storage conditions. The 1:1 olaparib gentisic acid cocrystal, 2:1 olaparib gentisic acid cocrystal, 1:1 olaparib 2,4-dihydroxybenzoic acid cocrystal, 2:1 2,4-dihydroxybenzoic acid cocrystal, and the 2:1 olaparib 4-hydroxybenzoic acid cocrystal were separately stored at 40° C./75% relative humidity and 25° C./97% relative humidity for 7 days. After this time, all samples remained as white solids with no signs of deliquescence. Each sample was analysed by XRPD to observe any potential form changes and by HPLC to determine purity so as to determine any signs of decomposition.

[3] = low solubility and low permeability; cited from earlier work
[4] = Dissolution study in simulated intestinal fluid (FaSSIF V2), Pion inForm instrument; type: physicochemical; details: FaSSIF V2 pH 6.5, 37° C.
Text: As described in US 2018/0113216, the oral bioavailability of olaparib is dependent on both the dissolution rate and overall solubility of the drug in the gastro-intestinal (GI) tract. US 2018/0113216 describes how olaparib has a propensity for efflux by P-gp at concentrations limiting its permeability and thus limiting its absorption from the GI tract. This efflux ratio is lowered as the concentration of drug in solution increases. Thus, to minimize this efflux issue and achieve optimal absorption and bioavailability it is essential to find a form of olaparib that has as high a dissolution rate as possible in the GI tract and that also maintains a high level of solubility over a sufficient period of time to allow the drug to be absorbed into the blood stream. […] The dissolution study was carried out using 50 mL simulated intestinal fluid (FaSSIF V2) at pH 6.5 (37° C.) using a quantity of each olaparib form equivalent to 25 mg olaparib. […] Detection and quantification of olaparib was performed by in-situ UV-spectroscopy using a fibre-optic probe, allowing instantaneous data collection from the point of sample introduction. UV absorption data was converted to mg/mL (±0.2 mg/mL) using a previously determined pH dependent molar extinction coefficients to quantitate the amount of dissolved drug.

[5] = across the 0-90% relative humidity range at 25° C. under nitrogen

Structure (SMILES): O=C(O)c1cc(O)ccc1O.O=C(c1cc(Cc2n[nH]c(=O)c3ccccc23)ccc1F)N1CCN(C(=O)C2CC2)CC1.O=C(c1cc(Cc2n[nH]c(=O)c3ccccc23)ccc1F)N1CCN(C(=O)C2CC2)CC1 [2:1 olaparib gentisic acid cocrystal]
- reversibly absorbed moisture (GVS) [1, 5]: 3.4 % w/w
- XRPD analysis of the sample post GVS (cocrystal structure) [1]: unchanged
- reversibly absorbed moisture (GVS) ([1]; between 0 and 5% RH, 25° C.): 1.6 % w/w
- XRPD Analysis ([2]; 25° C./97% RH): No change
- Purity ([2]; 25° C./97% RH): 99.64%
- XRPD Analysis ([2]; 40° C./75 RH): No change
- Purity ([2]; 40° C./75 RH): 99.59%

Structure (SMILES): O=C(O)c1ccc(O)cc1.O=C(c1cc(Cc2n[nH]c(=O)c3ccccc23)ccc1F)N1CCN(C(=O)C2CC2)CC1.O=C(c1cc(Cc2n[nH]c(=O)c3ccccc23)ccc1F)N1CCN(C(=O)C2CC2)CC1
- reversibly absorbed moisture (GVS) [1, 5]: 3.4 % w/w
- XRPD analysis of the sample post GVS (cocrystal structure) [1]: unchanged
- reversibly absorbed moisture (GVS) ([1]; between 0 and 5% RH, 25° C.): 1.5 % w/w
- XRPD Analysis ([2]; 25° C./97% RH): No change
- Purity ([2]; 25° C./97% RH): 99.69%
- XRPD Analysis ([2]; 40° C./75 RH): No change
- Purity ([2]; 40° C./75 RH): 99.70%

Structure (SMILES): O=C(O)c1ccc(O)cc1O.O=C(c1cc(Cc2n[nH]c(=O)c3ccccc23)ccc1F)N1CCN(C(=O)C2CC2)CC1
- XRPD Analysis ([2]; 25° C./97% RH): No change
- Purity ([2]; 25° C./97% RH): 99.22%
- XRPD Analysis ([2]; 40° C./75 RH): No change
- Purity ([2]; 40° C./75 RH): 99.43%

Structure (SMILES): O=C(c1cc(Cc2n[nH]c(=O)c3ccccc23)ccc1F)N1CCN(C(=O)C2CC2)CC1 [olaparib, 4-[(3-{[4-(cyclopropylcarbonyl)piperazin-1-yl]carbonyl}-4-fluorophenyl)methyl]phthalazin-1(2H)-one]
- BCS class [3]: class 4

Structure (SMILES): O=C(c1cc(Cc2n[nH]c(=O)c3ccccc23)ccc1F)N1CCN(C(=O)C2CC2)CC1 [milled olaparib form A]
- amount of olaparib dissolved after particle size reduction ([4]; any one timepoint over a 30-minute time period, compared with form A as supplied): overall decrease in the amount of olaparib dissolved
- rate of dissolution after particle size reduction ([4]; compared with olaparib form A as supplied): lower rate of dissolution

Structure (SMILES): O=C(O)c1ccc(O)cc1O.O=C(c1cc(Cc2n[nH]c(=O)c3ccccc23)ccc1F)N1CCN(C(=O)C2CC2)CC1.O=C(c1cc(Cc2n[nH]c(=O)c3ccccc23)ccc1F)N1CCN(C(=O)C2CC2)CC1
- reversibly absorbed moisture (GVS) [1, 5]: 4.5 % w/w
- XRPD analysis of the sample post GVS (cocrystal structure) [1]: unchanged
- reversibly absorbed moisture (GVS) ([1]; between 0 and 5% RH, 25° C.): 2.5 % w/w
- XRPD Analysis ([2]; 25° C./97% RH): No change
- Purity ([2]; 25° C./97% RH): 99.64%
- XRPD Analysis ([2]; 40° C./75 RH): No change
- Purity ([2]; 40° C./75 RH): 99.45%

Structure (SMILES): O=C(O)c1cc(O)ccc1O.O=C(c1cc(Cc2n[nH]c(=O)c3ccccc23)ccc1F)N1CCN(C(=O)C2CC2)CC1 [1:1 olaparib gentisic acid cocrystal]
- XRPD Analysis ([2]; 25° C./97% RH): No change
- Purity ([2]; 25° C./97% RH): 99.79%
- XRPD Analysis ([2]; 40° C./75 RH): No change
- Purity ([2]; 40° C./75 RH): 99.70%
